Measurements: article PMC11748363, “Antimicrobial and Antiproliferative Properties of 2‐Phenyl‐N‐(Pyridin‐2‐yl)acetamides” (Chemical Biology & Drug Design, 2025)
Values after ≈ are worked out from the molar mass of the structure shown. Read-outs that look alike come from different tables or passages of the source.

Experiments:
[1] = system: Mycobacterium tuberculosis H37Ra; test: Antimycobacterial microdilution broth MIC (resazurin), Mtb H37Ra; type: cell-based; conditions: Mycobacterium tuberculosis, H37RA, read-out: MIC Mtb H37Ra
[2] = system: Mycolicibacterium smegmatis DSM 43465; test: Antimycobacterial microdilution broth MIC (resazurin), M. smegmatis; type: cell-based; conditions: DSM43465, read-out: MIC M. smegmatis
[3] = system: Mycolicibacterium aurum DSM 43999; test: Antimycobacterial microdilution broth MIC (resazurin), M. aurum; type: cell-based; conditions: DSM43999, read-out: MIC M. aurum
HepG2 cell line = test: Cytotoxicity CellTiter 96, HepG2; type: cell-based, human; conditions: Homo sapiens, HepG2, 24 h, 24 h incubation; ^c compound precipitated in the testing medium; ^d over the limit of tested concentrations
[4] = system: Staphylococcus aureus CCM 4223, ATCC 29213; test: Antibacterial microdilution broth MIC, SA; type: cell-based; conditions: Staphylococcus aureus
[5] = system: Staphylococcus aureus subsp. aureus CCM 4750, ATCC 43300 (MRSA); test: Antibacterial microdilution broth MIC, MRSA; type: cell-based; conditions: Staphylococcus aureus
[6] = system: Staphylococcus epidermidis CCM 4418, ATCC 12228; test: Antibacterial microdilution broth MIC, SE; type: cell-based
[7] = system: Enterococcus faecalis CCM 4224, ATCC 29212; test: Antibacterial microdilution broth MIC, EF; type: cell-based
[8] = system: Escherichia coli CCM 3954, ATCC 25922; test: Antibacterial microdilution broth MIC, EC; type: cell-based
[9] = system: Acinetobacter baumannii DSM 30007, ATCC 19606; test: Antibacterial microdilution broth MIC, ACI; type: cell-based
[10] = system: Pseudomonas aeruginosa CCM 3955, ATCC 27853; test: Antibacterial microdilution broth MIC, PA; type: cell-based
[11] = system: Candida albicans CCM 8320, ATCC 24433; test: Antifungal microdilution broth MIC, CA
[12] = system: Candida krusei CCM 8271, ATCC 6258; test: Antifungal microdilution broth MIC, CK; conditions: Pichia kudriavzevii
[13] = system: Candida parapsilosis CCM 8260, ATCC 22019; test: Antifungal microdilution broth MIC, CP; conditions: Lodderomyces parapsilosis
[14] = system: Candida tropicalis CCM 8264, ATCC 750; test: Antifungal microdilution broth MIC, CT
[15] = system: Aspergillus fumigatus ATCC 204305; test: Antifungal microdilution broth MIC, AF
[16] = system: Lichtheimia corymbifera CCM 8077; test: Antifungal microdilution broth MIC, LC
[17] = system: Trichophyton interdigitale CCM 8377, ATCC 9533; test: Antifungal microdilution broth MIC, TI; conditions: Trichophyton interdigitale
[18] = system: Aspergillus flavus CCM 8363; test: Antifungal microdilution broth MIC, AFla
[19] = system: Klebsiella pneumoniae CCM 4415, ATCC 10031; test: Antibacterial microdilution broth MIC, KP
[20] = ATCC204305, 24 h, read-out: MIC AF 24h
[21] = ATCC204305, 48 h, read-out: MIC AF 48h
[22] = CCM8077, 24 h, read-out: MIC LC 24h
[23] = CCM8077, 48 h, read-out: MIC LC 48h
[24] = CCM8363, 24 h, read-out: MIC AFla 24h
[25] = CCM8363, 48 h, read-out: MIC AFla 48h

Row | Compound | MIC ([1]; Calculated from MIC (μg/mL)) [µM] | MIC [1] [µg/mL] | MIC [2] [µg/mL] | MIC [3] [µg/mL] | IC50 (HepG2 cell line) [µM] | MIC ([4]; 24 h, read-out: MIC SA 24h) [µM] | MIC ([4]; 48 h, read-out: MIC SA 48h) [µM] | MIC ([5]; 24 h, read-out: MIC MRSA 24h) [µM] | MIC ([5]; 48 h, read-out: MIC MRSA 48h) [µM] | MIC ([6]; 24 h, read-out: MIC SE 24h) [µM] | MIC ([6]; 48 h, read-out: MIC SE 48h) [µM] | MIC ([7]; 24 h, read-out: MIC EF 24h) [µM] | MIC ([7]; 48 h, read-out: MIC EF 48h) [µM] | MIC ([8]; 24 h, read-out: MIC EC 24h) [µM] | MIC ([8]; 48 h, read-out: MIC EC 48h) [µM] | MIC ([9]; 24 h, read-out: MIC ACI 24h) [µM] | MIC ([9]; 48 h, read-out: MIC ACI 48h) [µM] | MIC ([10]; 24 h, read-out: MIC PA 24h) [µM] | MIC ([10]; 48 h, read-out: MIC PA 48h) [µM] | MIC ([11]; 24 h, read-out: MIC CA 24h) [µM] | other results
1 | COc1ccccc1CC(=O)Nc1cccc(Cl)n1 [Compound 6] | > 1800 | > 500 | > 500 | > 500 | > 500 | > 500 | > 500 | > 500 | > 500 | > 500 | > 500 | > 500 | > 500 | > 500 | > 500 | > 500 | > 500 | > 500 | > 500 | > 500 | MIC ([11]; 48 h, read-out: MIC CA 48h): > 500 µM; MIC ([12]; 24 h, read-out: MIC CK 24h): > 500 µM; MIC ([12]; 48 h, read-out: MIC CK 48h): > 500 µM; MIC ([13]; 24 h, read-out: MIC CP 24h): > 500 µM; MIC ([13]; 48 h, read-out: MIC CP 48h): > 500 µM; MIC ([14]; 24 h, read-out: MIC CT 24h): > 500 µM; MIC ([14]; 48 h, read-out: MIC CT 48h): > 500 µM; MIC [15, 20]: > 500 µM; MIC [15, 21]: > 500 µM; MIC [16, 22]: > 500 µM; MIC [16, 23]: > 500 µM; MIC ([17]; 72 h, read-out: MIC TI 72h): > 500 µM; MIC ([17]; 120 h, read-out: MIC TI 120h): > 500 µM; MIC [18, 24]: > 500 µM; MIC [18, 25]: > 500 µM; MIC KP 24h [19]: > 500 µM; MIC KP 48h [19]: > 500 µM
2 | O=C(Cc1ccc(F)cc1)Nc1ccccn1 [Compound 31] | 543 | 125 | 62.5 (≈ 271 µM) | 250 (≈ 1090 µM) | 517 | 500 (≈ 115 µg/mL) | > 500 | > 500 | > 500 | 250 (≈ 57.6 µg/mL) | > 500 | > 500 | > 500 | > 500 | > 500 | > 500 | > 500 | > 500 | > 500 | > 500 | MIC ([11]; 48 h, read-out: MIC CA 48h): > 500 µM; MIC ([12]; 24 h, read-out: MIC CK 24h): 500 µM (≈ 115 µg/mL); MIC ([12]; 48 h, read-out: MIC CK 48h): 500 µM (≈ 115 µg/mL); MIC ([13]; 24 h, read-out: MIC CP 24h): 500 µM (≈ 115 µg/mL); MIC ([13]; 48 h, read-out: MIC CP 48h): > 500 µM; MIC ([14]; 24 h, read-out: MIC CT 24h): > 500 µM; MIC ([14]; 48 h, read-out: MIC CT 48h): > 500 µM; MIC [15, 20]: > 500 µM; MIC [15, 21]: > 500 µM; MIC [16, 22]: > 500 µM; MIC [16, 23]: > 500 µM; MIC ([17]; 72 h, read-out: MIC TI 72h): > 500 µM; MIC ([17]; 120 h, read-out: MIC TI 120h): > 500 µM; MIC [18, 24]: > 500 µM; MIC [18, 25]: > 500 µM; MIC KP 24h [19]: > 500 µM; MIC KP 48h [19]: > 500 µM
3 | O=C(Cc1ccc(C(F)(F)F)cc1)Nc1ccc(Cl)cn1 [Compound 29] | 397 | 125 | > 500 | > 500 | > 50 | > 500 | > 500 | > 500 | > 500 | 250 (≈ 78.7 µg/mL) | 250 (≈ 78.7 µg/mL) | > 500 | > 500 | > 500 | > 500 | > 500 | > 500 | > 500 | > 500 | > 500 | MIC ([11]; 48 h, read-out: MIC CA 48h): > 500 µM; MIC ([12]; 24 h, read-out: MIC CK 24h): > 500 µM; MIC ([12]; 48 h, read-out: MIC CK 48h): > 500 µM; MIC ([13]; 24 h, read-out: MIC CP 24h): > 500 µM; MIC ([13]; 48 h, read-out: MIC CP 48h): > 500 µM; MIC ([14]; 24 h, read-out: MIC CT 24h): > 500 µM; MIC ([14]; 48 h, read-out: MIC CT 48h): > 500 µM; MIC [15, 20]: > 500 µM; MIC [15, 21]: > 500 µM; MIC [16, 22]: > 500 µM; MIC [16, 23]: > 500 µM; MIC ([17]; 72 h, read-out: MIC TI 72h): > 500 µM; MIC ([17]; 120 h, read-out: MIC TI 120h): > 500 µM; MIC [18, 24]: > 500 µM; MIC [18, 25]: > 500 µM; MIC KP 24h [19]: > 500 µM; MIC KP 48h [19]: > 500 µM
